Laboratory results as given in ChEMBL document CHEMBL4387728, “Synthetic glycopeptides reveal specific binding pattern and conformational change at O-mannosylated position of α-dystroglycan by POMGnT1 catalyzed GlcNAc modification” (Bioorg Med Chem, 2019).
Activity calls are given as the source filed them. The calls are words filed in the database; no cut-off is given here. Peptide text beside a SMILES is read from it. * marks the point of attachment. X1 = CC(=O)N[C@H]1[C@H](O[C@H]2[C@@H](O)[C@H](O)[C@@H](CO)O[C@@H]2*)O[C@H](CO)[C@@H](O[C@@H]2O[C@H](CO)[C@H](O)[C@H](O[C@]3(C(=O)O)C[C@H](O)[C@@H](NC(C)=O)[C@H]([C@H](O)[C@H](O)CO)O3)[C@H]2O)[C@@H]1O; X2 = CC(=O)N[C@H]1[C@H](O[C@H]2[C@@H](O)[C@H](O)[C@@H](CO)O[C@@H]2*)O[C@H](CO)[C@@H](O[C@@H]2O[C@H](CO)[C@H](O)[C@H](O)[C@H]2O)[C@@H]1O; GlcNAc(β1-2)αMan = CC(=O)N[C@H]1[C@H](O[C@H]2[C@@H](O)[C@H](O)[C@@H](CO)O[C@@H]2*)O[C@H](CO)[C@@H](O)[C@@H]1O; Hexanoyl(5-oxo) = CC(=O)CCCC(=O)*

How the values were obtained:
Homo sapiens [1] = species: Homo sapiens; test: Binding affinity to biotin-labeled human recombinant laminin-2 at 10 ug/ml in pH 7.4 Tris buffer by fluorescence microarray method
Triticum aestivum = test: Binding affinity to biotin-labeled Wheat germ agglutinin in pH 7.4 Tris buffer by fluorescence microarray method
[2] = target: Lactotransferrin (Homo sapiens) (UniProt P02788); test: Binding affinity to biotin-labeled lactoferrin (unknown origin) at 10 ug/ml in pH 7.4 Tris buffer by fluorescence microarray method
Sequence of Lactotransferrin (Homo sapiens) (P02788 whole entry): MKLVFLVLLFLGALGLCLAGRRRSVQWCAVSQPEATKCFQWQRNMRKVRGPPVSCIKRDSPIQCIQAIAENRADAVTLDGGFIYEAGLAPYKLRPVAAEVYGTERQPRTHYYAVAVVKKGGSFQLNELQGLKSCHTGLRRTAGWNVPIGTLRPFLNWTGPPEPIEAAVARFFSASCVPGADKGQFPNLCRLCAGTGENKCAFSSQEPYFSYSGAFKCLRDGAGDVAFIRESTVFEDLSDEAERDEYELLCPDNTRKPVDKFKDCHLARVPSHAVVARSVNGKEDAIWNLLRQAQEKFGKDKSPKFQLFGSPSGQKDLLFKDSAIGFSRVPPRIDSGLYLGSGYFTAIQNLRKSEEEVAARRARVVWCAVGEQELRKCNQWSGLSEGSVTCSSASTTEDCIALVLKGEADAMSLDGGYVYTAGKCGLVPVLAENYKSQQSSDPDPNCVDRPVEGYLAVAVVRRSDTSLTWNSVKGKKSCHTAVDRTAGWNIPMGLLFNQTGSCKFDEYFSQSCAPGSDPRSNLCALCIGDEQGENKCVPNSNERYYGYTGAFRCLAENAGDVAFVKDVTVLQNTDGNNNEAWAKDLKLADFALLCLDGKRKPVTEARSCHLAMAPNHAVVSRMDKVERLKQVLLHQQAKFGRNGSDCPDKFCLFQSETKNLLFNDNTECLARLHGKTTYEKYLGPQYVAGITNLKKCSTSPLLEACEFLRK

[3] = system: Sambucus racemosa subsp. sieboldiana; test: Binding affinity to biotin-labeled Sambucus sieboldiana agglutinin in pH 7.4 Tris buffer by fluorescence microarray method
Arachis hypogaea = test: Binding affinity to biotin-labeled Arachis hypogaea agglutinin in pH 7.4 Tris buffer by fluorescence microarray method
Homo sapiens [4] = species: Homo sapiens; test: Binding affinity to biotin-labeled human recombinant laminin-2 at 10 ug/ml in 5.6 MES buffer by fluorescence microarray method
Maackia amurensis = test: Binding affinity to biotin-labeled Maackia amurensis agglutinin in pH 7.4 Tris buffer by fluorescence microarray method
Datura stramonium = test: Binding affinity to biotin-labeled Datura stramonium agglutinin in pH 7.4 Tris buffer by fluorescence microarray method
[5] = target: Laminin subunit alpha-1 (Homo sapiens) (UniProt P25391); test: Binding affinity to biotin-labeled human recombinant laminin-1 at 10 ug/ml in pH 5.6 MES buffer by fluorescence microarray method
Sequence of Laminin subunit alpha-1 (Homo sapiens) (P25391 whole entry): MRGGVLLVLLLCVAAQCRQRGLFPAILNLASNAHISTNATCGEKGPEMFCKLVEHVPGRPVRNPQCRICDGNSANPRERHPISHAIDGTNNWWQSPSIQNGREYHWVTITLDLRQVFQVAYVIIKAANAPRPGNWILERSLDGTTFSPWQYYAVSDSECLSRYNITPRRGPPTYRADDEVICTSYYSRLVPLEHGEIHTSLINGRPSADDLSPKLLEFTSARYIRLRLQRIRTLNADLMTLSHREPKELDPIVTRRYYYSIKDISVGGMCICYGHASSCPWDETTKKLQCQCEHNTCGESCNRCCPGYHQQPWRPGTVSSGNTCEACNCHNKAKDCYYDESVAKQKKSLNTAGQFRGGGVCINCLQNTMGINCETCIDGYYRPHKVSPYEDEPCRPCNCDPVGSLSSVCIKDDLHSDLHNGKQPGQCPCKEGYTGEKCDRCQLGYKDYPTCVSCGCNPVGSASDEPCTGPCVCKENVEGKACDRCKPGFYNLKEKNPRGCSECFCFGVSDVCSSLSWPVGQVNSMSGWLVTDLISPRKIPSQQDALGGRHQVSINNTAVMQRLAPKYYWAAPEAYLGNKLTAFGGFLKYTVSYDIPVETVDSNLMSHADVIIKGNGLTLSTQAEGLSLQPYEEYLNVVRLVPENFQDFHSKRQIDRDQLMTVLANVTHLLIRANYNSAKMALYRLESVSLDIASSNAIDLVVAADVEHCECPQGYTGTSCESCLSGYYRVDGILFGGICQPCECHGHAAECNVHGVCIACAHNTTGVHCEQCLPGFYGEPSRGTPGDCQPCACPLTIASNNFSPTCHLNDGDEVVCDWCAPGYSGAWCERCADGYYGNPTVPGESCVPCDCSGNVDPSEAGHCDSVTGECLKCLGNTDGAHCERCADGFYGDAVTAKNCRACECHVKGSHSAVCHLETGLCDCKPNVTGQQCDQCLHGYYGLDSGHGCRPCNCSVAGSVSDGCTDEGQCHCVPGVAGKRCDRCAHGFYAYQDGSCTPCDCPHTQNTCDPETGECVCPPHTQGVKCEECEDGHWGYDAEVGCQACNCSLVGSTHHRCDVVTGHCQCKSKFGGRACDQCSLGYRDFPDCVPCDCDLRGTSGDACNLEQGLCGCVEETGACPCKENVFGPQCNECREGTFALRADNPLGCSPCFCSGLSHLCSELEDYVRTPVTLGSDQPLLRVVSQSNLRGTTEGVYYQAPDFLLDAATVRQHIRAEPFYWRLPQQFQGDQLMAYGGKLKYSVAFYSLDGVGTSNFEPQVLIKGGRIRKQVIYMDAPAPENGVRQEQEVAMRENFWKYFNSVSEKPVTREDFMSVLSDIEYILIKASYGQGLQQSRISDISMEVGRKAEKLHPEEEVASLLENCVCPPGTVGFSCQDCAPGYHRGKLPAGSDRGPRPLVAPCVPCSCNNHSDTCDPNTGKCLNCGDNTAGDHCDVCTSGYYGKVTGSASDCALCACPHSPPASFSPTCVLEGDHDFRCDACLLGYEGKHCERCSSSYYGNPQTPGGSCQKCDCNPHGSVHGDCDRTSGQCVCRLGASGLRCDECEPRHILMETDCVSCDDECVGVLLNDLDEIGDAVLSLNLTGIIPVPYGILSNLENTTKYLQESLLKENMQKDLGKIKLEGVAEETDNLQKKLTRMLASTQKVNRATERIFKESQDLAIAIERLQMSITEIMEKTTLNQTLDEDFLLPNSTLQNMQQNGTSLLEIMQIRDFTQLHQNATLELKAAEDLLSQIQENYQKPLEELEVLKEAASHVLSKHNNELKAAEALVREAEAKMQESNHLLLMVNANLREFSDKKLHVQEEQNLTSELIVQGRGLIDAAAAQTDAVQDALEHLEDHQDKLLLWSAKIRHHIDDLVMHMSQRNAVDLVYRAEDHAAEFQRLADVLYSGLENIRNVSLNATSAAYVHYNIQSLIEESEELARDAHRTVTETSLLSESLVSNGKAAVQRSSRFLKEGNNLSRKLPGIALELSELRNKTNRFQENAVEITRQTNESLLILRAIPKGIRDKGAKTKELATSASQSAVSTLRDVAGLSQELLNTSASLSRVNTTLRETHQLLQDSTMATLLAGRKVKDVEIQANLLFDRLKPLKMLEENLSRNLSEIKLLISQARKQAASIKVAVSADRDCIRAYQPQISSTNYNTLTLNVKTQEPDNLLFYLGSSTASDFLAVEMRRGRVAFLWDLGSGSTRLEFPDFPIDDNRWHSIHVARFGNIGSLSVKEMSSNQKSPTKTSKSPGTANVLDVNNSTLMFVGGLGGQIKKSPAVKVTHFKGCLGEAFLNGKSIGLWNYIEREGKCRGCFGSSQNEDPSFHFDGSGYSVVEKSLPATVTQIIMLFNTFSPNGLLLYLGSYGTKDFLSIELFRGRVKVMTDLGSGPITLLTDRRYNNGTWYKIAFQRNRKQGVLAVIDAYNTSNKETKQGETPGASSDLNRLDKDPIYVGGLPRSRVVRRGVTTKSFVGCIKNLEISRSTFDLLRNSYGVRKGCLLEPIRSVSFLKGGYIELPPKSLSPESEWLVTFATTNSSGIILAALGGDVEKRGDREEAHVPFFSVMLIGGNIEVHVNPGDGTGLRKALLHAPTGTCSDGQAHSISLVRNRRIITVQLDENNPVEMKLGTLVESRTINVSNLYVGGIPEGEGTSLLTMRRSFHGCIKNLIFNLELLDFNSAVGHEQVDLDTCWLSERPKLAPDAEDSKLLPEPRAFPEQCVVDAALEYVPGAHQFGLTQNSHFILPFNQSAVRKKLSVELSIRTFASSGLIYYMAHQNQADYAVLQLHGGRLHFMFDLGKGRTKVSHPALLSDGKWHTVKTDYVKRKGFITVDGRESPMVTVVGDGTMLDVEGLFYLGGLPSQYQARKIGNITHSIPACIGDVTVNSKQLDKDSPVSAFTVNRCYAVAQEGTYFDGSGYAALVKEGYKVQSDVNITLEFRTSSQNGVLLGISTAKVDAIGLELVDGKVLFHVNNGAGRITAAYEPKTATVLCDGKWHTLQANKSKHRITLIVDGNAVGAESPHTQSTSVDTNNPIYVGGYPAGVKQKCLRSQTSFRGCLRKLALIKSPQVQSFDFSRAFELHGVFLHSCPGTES

Erythrina crista-galli = test: Binding affinity to biotin-labeled Erythrina crista-galli agglutinin in pH 7.4 Tris buffer by fluorescence microarray method
[6] = target: Laminin subunit alpha-1 (Homo sapiens) (UniProt P25391); test: Binding affinity to biotin-labeled human recombinant laminin-1 at 10 ug/ml in pH 7.4 Tris buffer by fluorescence microarray method
[7] = Binding affinity to biotin-labeled Agaricus bisporus agglutinin in pH 7.4 Tris buffer by fluorescence microarray method
Canavalia ensiformis = test: Binding affinity to biotin-labeled Canavalia ensiformis agglutinin in pH 7.4 Tris buffer by fluorescence microarray method
[8] = target: Lactotransferrin (Homo sapiens) (UniProt P02788); test: Binding affinity to biotin-labeled lactoferrin (unknown origin) at 10 ug/ml in pH 5.6 MES buffer by fluorescence microarray method

Compound | Activity (Homo sapiens [1]) | Activity (Triticum aestivum) | Activity [2] | Activity [3] | Activity (Arachis hypogaea) | Activity (Homo sapiens [4]) | Activity (Maackia amurensis) | Activity (Datura stramonium) | Activity [5] | Activity (Erythrina crista-galli) | Activity [6] | Activity [7] | Activity (Canavalia ensiformis) | Activity [8]
CC[C@H](C)[C@H](NC(=O)[C@H](C)NC(=O)CNC(=O)[C@H](CCCNC(=N)N)NC(=O)[C@@H](NC(=O)CCCC(C)=O)[C@@H](C)O)C(=O)N[C@H](C(=O)N[C@@H](CCC(N)=O)C(=O)N[C@H](C(=O)N1CCC[C@H]1C(=O)N[C@H](C(=O)N[C@@H](CC(C)C)C(=O)NCC(=O)N1CCC[C@H]1C(=O)N[C@H](C(=O)N[C@@H](CCC(N)=O)C(=O)N1CCC[C@H]1C(=O)N[C@H](C(=O)N[C@@H](CCCNC(=N)N)C(=O)N[C@H](C(N)=O)C(C)C)[C@@H](C)O)[C@@H](C)CC)[C@@H](C)O[C@H]1O[C@H](CO)[C@@H](O)[C@H](O)[C@@H]1O[C@@H]1O[C@H](CO)[C@@H](O[C@@H]2O[C@H](CO)[C@H](O)[C@H](O[C@]3(C(=O)O)C[C@H](O)[C@@H](NC(C)=O)[C@H]([C@H](O)[C@H](O)CO)O3)[C@H]2O)[C@H](O)[C@H]1NC(C)=O)[C@@H](C)O)[C@@H](C)CC ({Hexanoyl(5-oxo)}-TRGAIIQTPT(X1)LGPIQPTRV-NH2) | inactive | Active | inactive | Active | Active | Active | inactive | inactive | Active | Active | Active | Active | Active | Active
CC[C@H](C)[C@H](NC(=O)[C@H](C)NC(=O)CNC(=O)[C@H](CCCNC(=N)N)NC(=O)[C@@H](NC(=O)CCCC(C)=O)[C@@H](C)O)C(=O)N[C@H](C(=O)N[C@@H](CCC(N)=O)C(=O)N[C@H](C(=O)N1CCC[C@H]1C(=O)N[C@H](C(=O)N[C@@H](CC(C)C)C(=O)NCC(=O)N1CCC[C@H]1C(=O)N[C@H](C(=O)N[C@@H](CCC(N)=O)C(=O)N1CCC[C@H]1C(=O)N[C@H](C(=O)N[C@@H](CCCNC(=N)N)C(=O)N[C@H](C(N)=O)C(C)C)[C@@H](C)O[C@H]1O[C@H](CO)[C@@H](O)[C@H](O)[C@@H]1O[C@@H]1O[C@H](CO)[C@@H](O)[C@H](O)[C@H]1NC(C)=O)[C@@H](C)CC)[C@@H](C)O)[C@@H](C)O)[C@@H](C)CC ({Hexanoyl(5-oxo)}-TRGAIIQTPTLGPIQPT(GlcNAc(β1-2)αMan)RV-NH2) | inactive | Active | inactive | Active | Active | Active | inactive | inactive | Active | Active | Active | Active | Active | Active
CC[C@H](C)[C@H](NC(=O)[C@H](C)NC(=O)CNC(=O)[C@H](CCCNC(=N)N)NC(=O)[C@@H](NC(=O)CCCC(C)=O)[C@@H](C)O)C(=O)N[C@H](C(=O)N[C@@H](CCC(N)=O)C(=O)N[C@H](C(=O)N1CCC[C@H]1C(=O)N[C@H](C(=O)N[C@@H](CC(C)C)C(=O)NCC(=O)N1CCC[C@H]1C(=O)N[C@H](C(=O)N[C@@H](CCC(N)=O)C(=O)N1CCC[C@H]1C(=O)N[C@H](C(=O)N[C@@H](CCCNC(=N)N)C(=O)N[C@H](C(N)=O)C(C)C)[C@@H](C)O[C@H]1O[C@H](CO)[C@@H](O)[C@H](O)[C@@H]1O[C@@H]1O[C@H](CO)[C@@H](O)[C@H](O)[C@H]1NC(C)=O)[C@@H](C)CC)[C@@H](C)O[C@H]1O[C@H](CO)[C@@H](O)[C@H](O)[C@@H]1O[C@@H]1O[C@H](CO)[C@@H](O[C@@H]2O[C@H](CO)[C@H](O)[C@H](O)[C@H]2O)[C@H](O)[C@H]1NC(C)=O)[C@@H](C)O)[C@@H](C)CC ({Hexanoyl(5-oxo)}-TRGAIIQTPT(X2)LGPIQPT(GlcNAc(β1-2)αMan)RV-NH2) | inactive | Active | inactive | Active | Active | Active | inactive | inactive | Active | Active | Active | Active | Active | Active
CC[C@H](C)[C@H](NC(=O)[C@H](C)NC(=O)CNC(=O)[C@H](CCCNC(=N)N)NC(=O)[C@@H](NC(=O)CCCC(C)=O)[C@@H](C)O)C(=O)N[C@H](C(=O)N[C@@H](CCC(N)=O)C(=O)N[C@H](C(=O)N1CCC[C@H]1C(=O)N[C@H](C(=O)N[C@@H](CC(C)C)C(=O)NCC(=O)N1CCC[C@H]1C(=O)N[C@H](C(=O)N[C@@H](CCC(N)=O)C(=O)N1CCC[C@H]1C(=O)N[C@H](C(=O)N[C@@H](CCCNC(=N)N)C(=O)N[C@H](C(N)=O)C(C)C)[C@@H](C)O[C@H]1O[C@H](CO)[C@@H](O)[C@H](O)[C@@H]1O[C@@H]1O[C@H](CO)[C@@H](O[C@@H]2O[C@H](CO)[C@H](O)[C@H](O)[C@H]2O)[C@H](O)[C@H]1NC(C)=O)[C@@H](C)CC)[C@@H](C)O)[C@@H](C)O[C@H]1O[C@H](CO)[C@@H](O)[C@H](O)[C@@H]1O[C@@H]1O[C@H](CO)[C@@H](O[C@@H]2O[C@H](CO)[C@H](O)[C@H](O)[C@H]2O)[C@H](O)[C@H]1NC(C)=O)[C@@H](C)CC ({Hexanoyl(5-oxo)}-TRGAIIQT(X2)PTLGPIQPT(X2)RV-NH2) | inactive | Active | inactive | Active | Active | Active | inactive | inactive | Active | Active | Active | Active | Active | Active
CC[C@H](C)[C@H](NC(=O)[C@H](C)NC(=O)CNC(=O)[C@H](CCCNC(=N)N)NC(=O)[C@@H](NC(=O)CCCC(C)=O)[C@@H](C)O)C(=O)N[C@H](C(=O)N[C@@H](CCC(N)=O)C(=O)N[C@H](C(=O)N1CCC[C@H]1C(=O)N[C@H](C(=O)N[C@@H](CC(C)C)C(=O)NCC(=O)N1CCC[C@H]1C(=O)N[C@H](C(=O)N[C@@H](CCC(N)=O)C(=O)N1CCC[C@H]1C(=O)N[C@H](C(=O)N[C@@H](CCCNC(=N)N)C(=O)N[C@H](C(N)=O)C(C)C)[C@@H](C)O[C@H]1O[C@H](CO)[C@@H](O)[C@H](O)[C@@H]1O[C@@H]1O[C@H](CO)[C@@H](O)[C@H](O)[C@H]1NC(C)=O)[C@@H](C)CC)[C@@H](C)O[C@H]1O[C@H](CO)[C@@H](O)[C@H](O)[C@@H]1O[C@@H]1O[C@H](CO)[C@@H](O)[C@H](O)[C@H]1NC(C)=O)[C@@H](C)O)[C@@H](C)CC ({Hexanoyl(5-oxo)}-TRGAIIQTPT(GlcNAc(β1-2)αMan)LGPIQPT(GlcNAc(β1-2)αMan)RV-NH2) | inactive | Active | inactive | Active | Active | Active | inactive | inactive | Active | Active | Active | Active | Active | Active
